“And” between values parts separate entries of the source, which are not always exact repeats. Identical values can stand only once. Like-named read-outs stand apart in the source and are kept apart here.
Legend:
[1] = molecular target: T1, rat adrenergic α1B receptor (Rattus norvegicus, UniProt P15823); assay: Radioligand binding, adrenergic α1B ([3H]Prazosin); conditions: for inhibition at 0.03 µM / inhibition at 0.1 µM / Percentage inhibition of ligand binding, Adrenergic α1B (0.1 μM) / Percentage inhibition of ligand binding, Adrenergic α1B: [3H]Prazosin
T1 construct: rat adrenergic α1B receptor obtained from Wistar Rat liver; from tissue; host or cells: Wistar rat liver
T1 sequence (P15823 1-515): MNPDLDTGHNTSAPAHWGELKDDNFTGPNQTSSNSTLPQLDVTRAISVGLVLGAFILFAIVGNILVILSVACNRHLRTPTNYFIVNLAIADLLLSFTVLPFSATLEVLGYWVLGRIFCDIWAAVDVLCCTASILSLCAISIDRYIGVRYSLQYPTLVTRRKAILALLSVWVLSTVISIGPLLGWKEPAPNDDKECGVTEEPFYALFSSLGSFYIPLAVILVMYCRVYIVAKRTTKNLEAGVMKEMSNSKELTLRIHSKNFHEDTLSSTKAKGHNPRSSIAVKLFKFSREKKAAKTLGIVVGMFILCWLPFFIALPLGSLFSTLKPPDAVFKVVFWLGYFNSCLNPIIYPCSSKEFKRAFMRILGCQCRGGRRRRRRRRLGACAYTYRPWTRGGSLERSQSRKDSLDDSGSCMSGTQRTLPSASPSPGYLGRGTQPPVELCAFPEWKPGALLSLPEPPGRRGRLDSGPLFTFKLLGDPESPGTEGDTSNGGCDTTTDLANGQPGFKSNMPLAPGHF
In short: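 Rat α1B receptor from Wistar rat liver was incubated with 0.25 nM [3H]prazosin for 60 min at 25 °C in 50 mM Tris-HCl, pH 7.4, 0.5 mM EDTA. Non-specific binding was defined with 10 μM phentolamine. Bound radioligand was measured by filtration and counting, reported as percent inhibition of specific binding.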

[2] = molecular target: T2, human recombinant adrenergic α1D receptor (Homo sapiens, UniProt P25100); assay: Radioligand binding, adrenergic α1D ([3H]Prazosin); conditions: [3H]Prazosin
T2 construct: expressed in transfected cells; host or cells: HEK-293
T2 sequence (P25100 1-572): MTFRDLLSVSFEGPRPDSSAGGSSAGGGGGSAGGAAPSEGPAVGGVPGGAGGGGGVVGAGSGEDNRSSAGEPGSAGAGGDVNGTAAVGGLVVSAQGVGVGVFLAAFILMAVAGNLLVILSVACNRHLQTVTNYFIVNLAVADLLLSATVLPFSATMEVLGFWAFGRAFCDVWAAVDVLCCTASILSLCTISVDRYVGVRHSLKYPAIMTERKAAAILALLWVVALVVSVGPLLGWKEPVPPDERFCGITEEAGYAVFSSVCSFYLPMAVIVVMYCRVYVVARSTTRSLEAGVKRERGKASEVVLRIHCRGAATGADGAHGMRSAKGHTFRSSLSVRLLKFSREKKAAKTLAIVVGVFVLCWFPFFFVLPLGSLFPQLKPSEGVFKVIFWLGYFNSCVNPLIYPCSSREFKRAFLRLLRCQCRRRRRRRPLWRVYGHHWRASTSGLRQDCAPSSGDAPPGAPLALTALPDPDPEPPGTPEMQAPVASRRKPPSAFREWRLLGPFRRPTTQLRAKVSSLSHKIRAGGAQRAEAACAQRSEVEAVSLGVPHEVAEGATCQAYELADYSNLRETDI
Protocol: Compounds were incubated with 0.6 nM [3H]Prazosin for 60 min at 25° C. Non-specific binding was estimated in the presence of 10 μM phentolamine. Receptor proteins were filtered and washed, the filters were then counted to determine [3H]Prazosin specifically bound. […] Biochemical assay results are presented as the percent inhibition of specific binding in Table B1.

[3] = molecular target: T3, human recombinant adrenergic α2A receptor (Homo sapiens, UniProt P08913); assay: Radioligand binding, adrenergic α2A ([3H]MK-912); conditions: for inhibition at 0.03 µM / inhibition at 0.1 µM / Percentage inhibition of ligand binding, Adrenergic α2A (0.1 μM) / Percentage inhibition of ligand binding, Adrenergic α2A: [3H]MK-912; for Percentage inhibition of ligand binding, Adrenergic α2A (0.1 μM) / Percentage inhibition of ligand binding, Adrenergic α2A: 0.1 µM
T3 construct: expressed in transfected cells; host or cells: insect Sf9 cells
T3 sequence (P08913 1-465): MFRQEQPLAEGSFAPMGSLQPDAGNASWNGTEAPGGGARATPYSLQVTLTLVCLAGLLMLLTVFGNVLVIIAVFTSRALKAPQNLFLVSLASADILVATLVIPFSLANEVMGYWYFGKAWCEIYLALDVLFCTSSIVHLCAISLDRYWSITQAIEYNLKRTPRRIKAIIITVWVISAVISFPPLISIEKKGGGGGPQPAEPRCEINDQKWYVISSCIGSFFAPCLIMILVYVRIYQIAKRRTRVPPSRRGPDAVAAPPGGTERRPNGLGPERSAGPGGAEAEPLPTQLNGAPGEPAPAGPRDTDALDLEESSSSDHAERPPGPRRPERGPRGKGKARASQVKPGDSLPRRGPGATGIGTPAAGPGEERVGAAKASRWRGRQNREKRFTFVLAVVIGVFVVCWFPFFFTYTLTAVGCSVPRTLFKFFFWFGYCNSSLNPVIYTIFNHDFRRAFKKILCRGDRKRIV
In short: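 Sf9 membranes, 1 nM [3H]MK-912, 60 min, 25 °C, Tris-HCl pH 7.4/MgCl2/EDTA buffer. NSB: 10 μM WB-4101. Filtration, counting; % inhibition of specific binding.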

[4] = read-out: Percentage inhibition of ligand binding, Adrenergic α1B (0.03 μM), compound at 0.03 μM, repeat datapoints each shown
[5] = read-out: Percentage inhibition of ligand binding, Adrenergic α1B (0.1 μM), compound at 0.1 μM, repeat datapoints each shown
[6] = read-out: Percentage inhibition of ligand binding, Adrenergic α1D (0.03 μM), compound at 0.03 μM, repeat datapoints each shown
[7] = read-out: Percentage inhibition of ligand binding, Adrenergic α1D (0.1 μM), compound at 0.1 μM, repeat datapoints each shown
[8] = read-out: Percentage inhibition of ligand binding, Adrenergic α2A (0.03 μM), compound at 0.03 μM, repeat datapoints each shown
[9] = read-out: Percentage inhibition of ligand binding, Adrenergic α2A (0.1 μM), compound at 0.1 μM, repeat datapoints each shown
[10] = compound at 0.1 μM, repeat datapoints each shown, 0.1 µM
[11] = compound at 0.1 μM, repeat datapoints each shown
[12] = compound at 0.03 μM, repeat assays, each datapoint shown, 0.03 µM
[13] = compound at 0.03 μM, repeat assays, each datapoint shown, read-out: Percentage inhibition of ligand binding, Adrenergic α1B
[14] = compound at 0.1 μM, repeat assays, each datapoint shown, 0.1 µM
[15] = compound at 0.1 μM, repeat assays, each datapoint shown, read-out: Percentage inhibition of ligand binding, Adrenergic α1D
[16] = compound at 0.1 μM, repeat assays, each datapoint shown
[17] = compound at 0.1 μM, repeat assays, each datapoint shown, read-out: Percentage inhibition of ligand binding, Adrenergic α1B
[18] = compound at 0.03 μM, repeat assays, each datapoint shown, read-out: Percentage inhibition of ligand binding, Adrenergic α1D
[19] = compound at 0.1 μM, repeat assays, each datapoint shown, read-out: Percentage inhibition of ligand binding, Adrenergic α2A

| Structure (SMILES) | inhibition at 0.03 µM [1, 4] | inhibition at 0.1 µM [1, 5] | inhibition at 0.1 µM [2, 7] | Ki [3] | inhibition at 0.03 µM [3, 8] | inhibition at 0.1 µM [3, 9] | Percentage inhibition of ligand binding, Adrenergic α1B (0.1 μM) [1, 10] | Percentage inhibition of ligand binding, Adrenergic α2A (0.1 μM) [3, 11] | inhibition at 0.03 µM [1, 13] | Percentage inhibition of ligand binding, Adrenergic α1B [1, 14] | inhibition at 0.1 µM [2, 15] | inhibition at 0.1 µM [1, 17] | inhibition at 0.1 µM [3, 19] | other results |
| --- | --- | --- | --- | --- | --- | --- | --- | --- | --- | --- | --- | --- | --- | --- |
| C/C(=C\n1c2c(c3cc(Cl)ccc31)CN(C)CC2)c1ccncc1 [compound 185, 8-chloro-2,3,4,5-tetrahydro-2-methyl-5-((E)-2-(pyridin-4-yl)prop-1-enyl)-1H-pyrido[4,3-b]indole] | 63% | 86% | 58% | 21 nM | 37% | 62% | – | – | – | – | – | – | – | inhibition at 0.03 µM [2, 6]: 47% |
| CCN1CCc2c(c3cc(C)ccc3n2CCc2ccc(C)cc2)C1 [compound 202] | 29% | 52% | 52% | – | – | 92% | – | – | – | – | – | – | – | – |
| Cc1ccc2c(c1)c1c(n2CC(C)(O)c2cccnc2)CCN(C)C1 (single isomer, unassigned) [5b, 1-(1,2,3,4-tetrahydro-2,8-dimethylpyrido[4,3-b]indol-5-yl)-2-(pyridin-3-yl)propan-2-ol] | – | – | – | 152 nM and 192 nM and 195 nM | – | – | – | – | 10% | 23% and 30% and 33% | 1% | – | – | Ki [1]: 184 nM; Percentage inhibition of ligand binding, Adrenergic α1B [1, 12]: 11% and 15%; Percentage inhibition of ligand binding, Adrenergic α2A [3, 16]: 18% and 21% and 22% |
| Cc1cnc2c(c1)c1c(n2CCc2ccc(C)nc2)CCN2CCCC12 (single isomer, unassigned) [74a, 10-methyl-7-(2-(6-methylpyridin-3-yl)ethyl)-2,3,5,6,7,11c-hexahydro-1H-pyrido[3′,2′:4,5]pyrrolo[2,3-g]indolizine] | – | – | – | 234 nM | – | – | – | – | 81% | 96% | 61% | 91% | 22% | Ki [1]: 4.72 nM; inhibition at 0.03 µM [2, 18]: 42%; Percentage inhibition of ligand binding, Adrenergic α2A [3, 16]: 27% |
| Cc1cnc2c(c1)c1c(n2CCc2ccc(C)nc2)CCN(C)C1 [II-110, 3,6-dimethyl-9-(2-(6-methylpyridin-3-yl)ethyl)-6,7,8,9-tetrahydro-5H-pyrrolo[2,3-b:4,5-c′]dipyridine] | – | 25% | 17% | – | – | 1% | 36% | 2% | – | – | – | – | – | – |
| Cc1ccc2c(c1)c1c(n2CC(C)(O)c2cccnc2)CCN(C)C1 (stereo not shown) [compound 5, 1-(1,2,3,4-tetrahydro-2,8-dimethylpyrido[4,3-b]indol-5-yl)-2-(pyridin-3-yl)propan-2-ol] | – | – | – | – | – | – | – | – | – | 21% | 4% | 14% | 13% | – |

More lines, main results first:

| inhibition at 0.03 µM [1, 4] | inhibition at 0.1 µM [1, 5] | inhibition at 0.1 µM [2, 7] | Ki [3] | inhibition at 0.03 µM [3, 8] | inhibition at 0.1 µM [3, 9] | Percentage inhibition of ligand binding, Adrenergic α1B (0.1 μM) [1, 10] | Percentage inhibition of ligand binding, Adrenergic α2A (0.1 μM) [3, 11] | inhibition at 0.03 µM [1, 13] | Percentage inhibition of ligand binding, Adrenergic α1B [1, 14] | inhibition at 0.1 µM [2, 15] | inhibition at 0.1 µM [1, 17] | inhibition at 0.1 µM [3, 19] | Structure (SMILES) | other results |
| --- | --- | --- | --- | --- | --- | --- | --- | --- | --- | --- | --- | --- | --- | --- |
| – | 15% | 15% | – | – | 21% | – | – | – | – | – | – | – | Cc1ccc2c(c1)c1c(n2C2=C(c3ccncc3)CCC2)CCN(C)C1 [compound 114] | – |
| 2% | 10% | 43% | 2.1 nM | 85% | 89% | 20% | 98% | – | – | – | – | – | Cc1ccc2c(c1)c1c(n2C2=C(c3ccc4c(ccn4C)c3)CCC2)CCN(C)C1 [compound 191, 2,8-dimethyl-5-(2-(1-methyl-1H-indol-5-yl)cyclopent-1-enyl)-2,3,4,5-tetrahydro-1H-pyrido[4,3-b]indole] | – |
| 9% | 14% | 31% | 12.8 nM | 49% | 70% | 15% | 89% | – | – | – | – | – | Cc1ccc2c(c1)c1c(n2C2=C(c3ccc(C)s3)CCC2)CCN(C)C1 [compound 190, 2,8-dimethyl-5-(2-(5-methylthiophen-2-yl)cyclopent-1-enyl)-2,3,4,5-tetrahydro-1H-pyrido[4,3-b]indole] | – |
| 32% | 58% | 32% | – | – | – | – | – | 25% | 53% | 25% | 52% | 5% | Cc1ccc2c(c1)c1c(n2CCc2ccc(CO)nc2)CCN(C)C1 [compound 91] | Percentage inhibition of ligand binding, Adrenergic α1B [1, 12]: 28%; Percentage inhibition of ligand binding, Adrenergic α1D [2, 12]: 11%; inhibition at 0.03 µM [2, 18]: 7%; Percentage inhibition of ligand binding, Adrenergic α1D [2, 14]: 30%; inhibition at 0.03 µM [2, 6]: 21%; inhibition at 0.03 µM ([3]; compound at 0.03 μM, repeat assays, each datapoint shown, read-out: Percentage inhibition of ligand binding, Adrenergic α2A): 6% |
| 50% | 71% | 36% | – | – | 93% | – | – | – | – | – | – | – | Cc1ccc(C(O)Cn2c3c(c4cc(C)ccc42)CN(C)CC3)cc1 (racemic) [compound 183, racemic-2-(1,2,3,4-tetrahydro-2,8-dimethylpyrido[4,3-b]indol-5-yl)-1-p-tolylethanol] | – |
| 4% | 21% | 14% | 65.8 nM | 25% | 45% | 22% | 48% | – | – | – | – | – | Cc1ccc2c(c1)c1c(n2CNc2ccccn2)CCN(C)C1 [compound 120, (2,8-dimethyl-1,2,3,4-tetrahydro-pyrido[4,3-b]indol-5-ylmethyl)-pyridin-2-yl-amine] | Percentage inhibition of ligand binding, Adrenergic α1D (0.1 μM) [2, 10]: 26%; inhibition at 0.03 µM [2, 6]: 3% |
| – | – | – | – | – | – | – | – | 28% | – | 37% | 60% | 30% | Cc1ccc2c(c1)c1c(n2CCc2cccnc2)CCN(C)C1 [compound 61] | inhibition at 0.03 µM [2, 18]: 14% |

From US8791132B2, “Compounds and methods for treatment of hypertension” (Medivation Technologies, Inc., priority 2011, dated 2014)
